Measurements published in US11857519B2, “Compounds and methods for the targeted degradation of enhancer of zeste homolog 2 polypeptide” (Arvinas Operations, Inc., priority 2016, dated 2024).

Molecular target: T1, EZH2 (Homo sapiens, UniProt Q15910)
T1 construct: Protocol of the Cellular Assay of Target Protein Degradation (VCaP Cells, ELISA); endogenous in cells; host or cells: VCaP cells
Experiment: Cellular assay of target protein degradation (VCaP cells, ELISA)
Type: cell-based
Settings: 4 hours, protein degradation range at indicated concentration (relative to DMSO control)
Method: Protocol of the Cellular Assay of Target Protein Degradation (VCaP Cells, ELISA).
For detection Cell Signaling PathScan Sandwich ELISA Catalog #12850 Lot 11 was used. VCaP cells were cultured in ATCC DMEM+ATCC FBS and plated 40,000/well 100 μl/well in RPMI P/S with 5% CSS Omega (bovine) serum into a 96 well plate. The cells were grown for a minimum of 3 days, dosed with compounds in 0.1% DMSO (diluted with 5% CSS) and incubated with aspiration for 4 hours. 100 μl of 1× Cell Signaling lysis buffer #9803 (36 mL dH2O+4 mL Cell Signaling lysis buffer) was added. The incubation was placed on cold room shaker for 10 minutes at speed 8-9. 5 μl to 100 μL of Diluent was transferred to ELISA plate (0.15 μg/mL−0.075 μg/mL) and stored at 4° C. overnight on cold room shaker speed 5 (gentle swirl) and then shaken next morning at 37° C. for 30 minutes. The preparation was washed 4×200 μl with ELISA wash buffer and aspirated with eight-channel aspirator. 100 μl/well of target protein detection antibody was added after, which the preparation was covered and shaken at 37° C. for 1 hour. 100 μl TMB was added, and the mixture was shaken for 5 min while under observation. When TMB turned light blue, 100 μl of Stop solution was added, and the mixture was shaken and read at 450 nm. Also read at 562 nm for background subtraction.

T1 sequence (Q15910 whole entry): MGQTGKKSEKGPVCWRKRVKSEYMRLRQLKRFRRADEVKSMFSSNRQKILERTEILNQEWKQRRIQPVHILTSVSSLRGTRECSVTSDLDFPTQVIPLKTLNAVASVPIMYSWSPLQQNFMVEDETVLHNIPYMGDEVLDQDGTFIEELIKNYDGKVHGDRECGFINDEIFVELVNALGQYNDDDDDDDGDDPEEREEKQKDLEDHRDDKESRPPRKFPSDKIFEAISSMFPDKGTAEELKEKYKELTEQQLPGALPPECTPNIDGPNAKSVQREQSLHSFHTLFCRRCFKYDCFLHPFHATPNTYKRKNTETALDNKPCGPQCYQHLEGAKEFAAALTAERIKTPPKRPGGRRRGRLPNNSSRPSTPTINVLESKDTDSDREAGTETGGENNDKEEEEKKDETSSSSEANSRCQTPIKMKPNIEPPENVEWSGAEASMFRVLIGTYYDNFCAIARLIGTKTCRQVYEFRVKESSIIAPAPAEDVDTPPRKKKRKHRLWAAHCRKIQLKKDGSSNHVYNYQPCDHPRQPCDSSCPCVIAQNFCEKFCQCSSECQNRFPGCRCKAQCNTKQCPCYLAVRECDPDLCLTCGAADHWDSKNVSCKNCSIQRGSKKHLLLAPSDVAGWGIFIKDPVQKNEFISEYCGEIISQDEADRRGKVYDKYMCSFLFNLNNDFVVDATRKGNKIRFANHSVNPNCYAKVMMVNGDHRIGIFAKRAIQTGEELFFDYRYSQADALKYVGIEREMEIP
T1 sequence (O75530 whole entry partner): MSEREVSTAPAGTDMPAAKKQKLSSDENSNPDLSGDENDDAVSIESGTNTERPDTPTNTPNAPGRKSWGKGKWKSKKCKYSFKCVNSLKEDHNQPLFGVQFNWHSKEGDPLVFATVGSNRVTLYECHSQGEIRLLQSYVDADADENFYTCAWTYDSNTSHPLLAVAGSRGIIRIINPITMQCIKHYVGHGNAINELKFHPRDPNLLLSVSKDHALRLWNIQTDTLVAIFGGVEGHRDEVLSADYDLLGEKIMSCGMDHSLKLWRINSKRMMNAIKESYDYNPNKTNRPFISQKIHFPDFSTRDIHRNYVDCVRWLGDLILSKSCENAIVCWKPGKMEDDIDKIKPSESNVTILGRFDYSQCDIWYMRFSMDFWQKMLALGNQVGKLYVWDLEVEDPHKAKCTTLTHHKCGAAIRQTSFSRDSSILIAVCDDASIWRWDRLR
T1 sequence (Q15022 whole entry partner): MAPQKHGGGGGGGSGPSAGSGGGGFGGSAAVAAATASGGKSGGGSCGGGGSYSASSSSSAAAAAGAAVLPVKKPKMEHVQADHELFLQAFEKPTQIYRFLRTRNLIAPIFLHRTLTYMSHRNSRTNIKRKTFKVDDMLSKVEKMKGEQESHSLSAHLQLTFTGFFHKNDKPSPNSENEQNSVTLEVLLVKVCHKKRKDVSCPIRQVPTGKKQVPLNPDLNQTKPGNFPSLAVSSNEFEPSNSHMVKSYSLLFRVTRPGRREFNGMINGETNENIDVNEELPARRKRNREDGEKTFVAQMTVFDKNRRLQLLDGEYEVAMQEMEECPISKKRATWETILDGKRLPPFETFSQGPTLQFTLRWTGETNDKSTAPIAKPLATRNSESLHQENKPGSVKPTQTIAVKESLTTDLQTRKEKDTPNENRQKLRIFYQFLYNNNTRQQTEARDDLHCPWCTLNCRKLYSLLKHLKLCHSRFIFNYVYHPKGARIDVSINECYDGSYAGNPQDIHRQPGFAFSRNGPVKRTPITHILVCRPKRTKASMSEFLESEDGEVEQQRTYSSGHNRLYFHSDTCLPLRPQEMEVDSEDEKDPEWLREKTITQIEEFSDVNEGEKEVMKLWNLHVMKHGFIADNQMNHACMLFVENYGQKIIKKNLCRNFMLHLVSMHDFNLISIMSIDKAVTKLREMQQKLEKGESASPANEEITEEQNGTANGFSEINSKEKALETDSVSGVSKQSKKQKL

percent target protein degradation class	Structure (SMILES)
B (B = degradation between 30% and 60%)	CCN(c1cc(-c2ccc(OCCOCCOCCOCCOCCOCCNc3cccc4c3C(=O)N(C3CCC(=O)NC3=O)C4=O)cc2)cc(C(=O)NCc2c(C)cc(C)[nH]c2=O)c1C)C1CCOCC1 (centres unmarked) [Compound 19, N-[(4,6-dimethyl-2-oxo-1,2-dihydropyridin-3-yl)methyl]-5-[4-({1-[2-(2,6-dioxopiperidin-3-yl)-1,3-dioxo-2,3-dihydro-1H-isoindol-4-yl]-4,7,10,13,16-pentaoxa-1-azaoctadecan-18-yl}oxy)phenyl]-3-[ethyl(oxan-4-yl)amino]-2-methylbenzamide]
B (B = degradation between 30% and 60%)	CCN(c1cc(-c2ccc(OCCOCCOCCOCCOCCOCCOCCNc3cccc4c3C(=O)N(C3CCC(=O)NC3=O)C4=O)cc2)cc(C(=O)NCc2c(C)cc(C)[nH]c2=O)c1C)C1CCOCC1 (centres unmarked) [Compound 20, N-[(4,6-dimethyl-2-oxo-1,2-dihydropyridin-3-yl)methyl]-5-[4-({1-[2-(2,6-dioxopiperidin-3-yl)-1,3-dioxo-2,3-dihydro-1H-isoindol-4-yl]-4,7,10,13,16,19-hexaoxa-1-azahenicosan-21-yl}oxy)phenyl]-3-[ethyl(oxan-4-yl)amino]-2-methylbenzamide]
B (B = degradation between 30% and 60%)	CCN(c1cc(-c2ccc(OCCOCCOCCOCCOCCOCCOCCOCCNc3cccc4c3C(=O)N(C3CCC(=O)NC3=O)C4=O)cc2)cc(C(=O)NCc2c(C)cc(C)[nH]c2=O)c1C)C1CCOCC1 (centres unmarked) [Compound 22, N-[(4,6-dimethyl-2-oxo-1,2-dihydropyridin-3-yl)methyl]-5-[4-({1-[2-(2,6-dioxopiperidin-3-yl)-1,3-dioxo-2,3-dihydro-1H-isoindol-4-yl]-4,7,10,13,16,19,22-heptaoxa-1-azatetracosan-24-yl}oxy)phenyl]-3-[ethyl(oxan-4-yl)amino]-2-methylbenzamide]
B (B = degradation between 30% and 60%)	CCN(c1cc(-c2ccc(OCCOCCOCCOCCOCCOc3ccc(-c4csc([C@@H]5CCCN5C(=O)[C@@H](NC(=O)[C@H](C)NC)C5CCCCC5)n4)c4ccccc34)cc2)cc(C(=O)NCc2c(C)cc(C)[nH]c2=O)c1C)C1CCOCC1 [Compound 30, 5-(4-{[1-(4-{2-[(2S)-1-[(2S)-2-cyclohexyl-2-[(2S)-2-(methylamino)propanamido]acetyl]pyrrolidin-2-yl]-1,3-thiazol-4-yl}naphthalen-1-yl)-1,4,7,10,13-pentaoxapentadecan-15-yl]oxy}phenyl)-N-[(4,6-dimethyl-2-oxo-1,2-dihydropyridin-3-yl)methyl]-3-[ethyl(oxan-4-yl)amino]-2-methylbenzamide]
A (A = degradation more than 60%)	CCN(c1cc(-c2ccc(OCCOCCOCC(=O)N[C@H](C(=O)N3C[C@H](O)C[C@H]3C(=O)NCc3ccc(-c4scnc4C)cc3)C(C)(C)C)cc2)cc(C(=O)NCc2c(C)cc(C)[nH]c2=O)c1C)C1CCOCC1 [Compound 31]
B (B = degradation between 30% and 60%)	CCN(c1cc(-c2ccc(OCCOCC(=O)N[C@H](C(=O)N3C[C@H](O)C[C@H]3C(=O)NCc3ccc(-c4scnc4C)cc3)C(C)(C)C)cc2)cc(C(=O)NCc2c(C)cc(C)[nH]c2=O)c1C)C1CCOCC1 [Compound 32, (2S,4R)-1-[(2S)-2-(2-{2-[4-(3-{[(4,6-dimethyl-2-oxo-1,2-dihydropyridin-3-yl)methyl]carbamoyl}-5-[ethyl(oxan-4-yl)amino]-4-methylphenyl)phenoxy]ethoxy}acetamido)-3,3-dimethylbutanoyl]-4-hydroxy-N-{[4-(4-methyl-1,3-thiazol-5-yl)phenyl]methyl}pyrrolidine-2-carboxamide]
B (B = degradation between 30% and 60%)	CCN(c1cc(-c2ccc(OCCOCCOCCNc3cccc4c3C(=O)N(C3CCC(=O)NC3=O)C4=O)cc2)cc(C(=O)NCc2c(C)cc(C)[nH]c2=O)c1C)C1CCOCC1 (centres unmarked) [Compound 33, N-[(4,6-dimethyl-2-oxo-1,2-dihydropyridin-3-yl)methyl]-5-(4-{2-[2-(2-{[2-(2,6-dioxopiperidin-3-yl)-1,3-dioxo-2,3-dihydro-1H-isoindol-4-yl]amino}ethoxy)ethoxy]ethoxy}phenyl)-3-[ethyl(oxan-4-yl)amino]-2-methylbenzamide]
B (B = degradation between 30% and 60%)	CCN(c1cc(-c2ccc(OCCOCCNc3cccc4c3C(=O)N(C3CCC(=O)NC3=O)C4=O)cc2)cc(C(=O)NCc2c(C)cc(C)[nH]c2=O)c1C)C1CCOCC1 (centres unmarked) [Compound 34, N-[(4,6-dimethyl-2-oxo-1,2-dihydropyridin-3-yl)methyl]-5-{4-[2-(2-{[2-(2,6-dioxopiperidin-3-yl)-1,3-dioxo-2,3-dihydro-1H-isoindol-4-yl]amino}ethoxy)ethoxy]phenyl}-3-[ethyl(oxan-4-yl)amino]-2-methylbenzamide]

Second part, the compound before the results:

Structure (SMILES)	percent target protein degradation class
CCN(c1cc(-c2cccc(OCCOCCOCCOCCOCCOCCNc3cccc4c3C(=O)N(C3CCC(=O)NC3=O)C4=O)c2)cc(C(=O)NCc2c(C)cc(C)[nH]c2=O)c1C)C1CCOCC1 (centres unmarked) [Compound 21, N-[(4,6-dimethyl-2-oxo-1,2-dihydropyridin-3-yl)methyl]-5-[3-({1-[2-(2,6-dioxopiperidin-3-yl)-1,3-dioxo-2,3-dihydro-1H-isoindol-4-yl]-4,7,10,13,16-pentaoxa-1-azaoctadecan-18-yl}oxy)phenyl]-3-[ethyl(oxan-4-yl)amino]-2-methylbenzamide]	B (B = degradation between 30% and 60%)
CCN(c1cc(-c2ccc(OCCOCCOCCOCCOCCOCCOCCOCCOCCNc3cccc4c3C(=O)N(C3CCC(=O)NC3=O)C4=O)cc2)cc(C(=O)NCc2c(C)cc(C)[nH]c2=O)c1C)C1CCOCC1 (stereo not drawn) [Compound 23, N-[(4,6-dimethyl-2-oxo-1,2-dihydropyridin-3-yl)methyl]-5-[4-({l-[2-(2,6-dioxopiperidin-3-yl)-1,3-dioxo-2,3-dihydro-1H-isoindol-4-yl]-4,7,10,13,16,19,22,25-octaoxa-1-azaheptacosan-27-yl}oxy)phenyl]-3-[ethyl(oxan-4-yl)amino]-2-methylbenzamide]	B (B = degradation between 30% and 60%)
CCN(c1cc(-c2ccccc2OCCOCCOCCOCCOCCOCCNc2cccc3c2C(=O)N(C2CCC(=O)NC2=O)C3=O)cc(C(=O)NCc2c(C)cc(C)[nH]c2=O)c1C)C1CCOCC1 (centres unmarked) [Compound 25, N-[(4,6-dimethyl-2-oxo-1,2-dihydropyridin-3-yl)methyl]-5-[2-({1-[2-(2,6-dioxopiperidin-3-yl)-1,3-dioxo-2,3-dihydro-1H-isoindol-4-yl]-4,7,10,13,16-pentaoxa-1-azaoctadecan-18-yl}oxy)phenyl]-3-[ethyl(oxan-4-yl)amino]-2-methylbenzamide]	B (B = degradation between 30% and 60%)
CCN(c1cc(-c2ccc(OCCOCCOCCOc3ccc(-c4csc([C@@H]5CCCN5C(=O)[C@@H](NC(=O)[C@H](C)NC)C5CCCCC5)n4)c4ccccc34)cc2)cc(C(=O)NCc2c(C)cc(C)[nH]c2=O)c1C)C1CCOCC1 [Compound 28, 5-{4-[2-(2-{2-[(4-{2-[(2S)-1-[(2S)-2-cyclohexyl-2-[(2S)-2-(methylamino)propanamido]acetyl]pyrrolidin-2-yl]-1,3-thiazol-4-yl}naphthalen-1-yl)oxy]ethoxy}ethoxy)ethoxy]phenyl}-N-[(4,6-dimethyl-2-oxo-1,2-dihydropyridin-3-yl)methyl]-3-[ethyl(oxan-4-yl)amino]-2-methylbenzamide]	B (B = degradation between 30% and 60%)
CCN(c1cc(-c2ccc(OCCOCCOCCOCCOCCOc3cc(-c4scnc4C)ccc3CNC(=O)[C@@H]3C[C@@H](O)CN3C(=O)[C@H](C(C)C)N3Cc4ccccc4C3=O)cc2)cc(C(=O)NCc2c(C)cc(C)[nH]c2=O)c1C)C1CCOCC1 [Compound 35, (2S,4R)-N-{[2-({1-[4-(3-{[(4,6-dimethyl-2-oxo-1,2-dihydropyridin-3-yl)methyl]carbamoyl}-5-[ethyl(oxan-4-yl)amino]-4-methylphenyl)phenyl]-1,4,7,10,13-pentaoxapentadecan-15-yl}oxy)-4-(4-methyl-1,3-thiazol-5-yl)phenyl]methyl}-4-hydroxy-1-[(2S)-3-methyl-2-(1-oxo-2,3-dihydro-1H-isoindol-2-yl)butanoyl]pyrrolidine-2-carboxamide]	B (B = degradation between 30% and 60%)
CCN(c1cc(-c2ccc(OCCOCCOCCOCCOc3cc(-c4scnc4C)ccc3CNC(=O)[C@@H]3C[C@@H](O)CN3C(=O)[C@H](C(C)C)N3Cc4ccccc4C3=O)cc2)cc(C(=O)NCc2c(C)cc(C)[nH]c2=O)c1C)C1CCOCC1 [Compound 36, (2S,4R)-N-{[2-({1-[4-(3-{[(4,6-dimethyl-2-oxo-1,2-dihydropyridin-3-yl)methyl]carbamoyl}-5-[ethyl(oxan-4-yl)amino]-4-methylphenyl)phenyl]-1,4,7,10-tetraoxadodecan-12-yl}oxy)-4-(4-methyl-1,3-thiazol-5-yl)phenyl]methyl}-4-hydroxy-1-[(2S)-3-methyl-2-(1-oxo-2,3-dihydro-1H-isoindol-2-yl)butanoyl]pyrrolidine-2-carboxamide]	B (B = degradation between 30% and 60%)
